Measurements from US11026943B2, “Aminoquinoline derivatives and uses thereof” (UNIVERSITY OF DELHI, priority 2012, dated 2021).

How the values were obtained:
Nurr1 DBD = target: T1, Nurr1 DBD (Mus musculus, UniProt Q06219); experiment: GAL4 / GAL4-Nurr1 DBD reporter assay; format: cell-based
T1 construct: the yeast transcription factor GAL4's DBD is fused to either Nurr1 LBD or DBD; expressed in transfected cells; host or cells: SK-N-BE(2)C human neuroblastoma cells

PC12 cells = experiment: 6-OHDA toxicity in PC12 cells (MTT reduction assay); format: cell-based, rat
Description: Cell viabilities were determined by the conventional MTT reduction assay. After incubation for indicated times, cells were treated with the MTT solution (final concentration, 1 mg/ml, Sigma) for 1 h. Formazan grains formed in intact cells were solubilized with MTT Solubilization. Solution containing 10% Triton X-100 plus 0.1 N HCl in anhydrous isopropanol for 24 h and then absorbance at 570 nm was measured with a microplate reader (Molecular Devices, Menlo Park, Calif.).

Nurr1 LBD [1] = target: T2, Nurr1 LBD (Mus musculus, UniProt Q06219); experiment: Surface plasmon resonance (BIAcore) binding, Nurr1-LBD
T2 sequence (Q06219 328-598): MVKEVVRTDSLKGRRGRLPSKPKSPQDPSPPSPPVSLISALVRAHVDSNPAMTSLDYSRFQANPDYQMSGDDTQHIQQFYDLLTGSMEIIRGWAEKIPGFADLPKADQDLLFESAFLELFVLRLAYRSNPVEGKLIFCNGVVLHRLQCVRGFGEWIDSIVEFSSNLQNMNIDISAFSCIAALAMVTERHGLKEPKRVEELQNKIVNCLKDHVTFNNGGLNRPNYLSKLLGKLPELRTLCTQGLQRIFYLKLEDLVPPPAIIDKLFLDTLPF
Description: Binding experiments were performed with the surface Plasmon Resonance-based biosensor instrument BIAcore 3000 (BIAcore AB, Uppsala). Immobilization of the purified proteins on the sensor surface was performed following the standard amine coupling procedure according to manufacturer's instructions. The final immobilization response of each protein was 6000 resonance units. A reference surface was generated simultaneously under the same conditions with BSA and used as a blank to correct for instrument and buffer artifacts. AQ and kanamycin were injected at variable concentrations at 20 μl/min flow rate, and binding to the protein immobilized on the chip was monitored in real-time. […] Binding data were analyzed using the BIAcore 3000 CONTROL® software and the BIAEVALUATION® software.
To investigate whether AQ and CQ physically interact with Nurr1's LBD, the inventors purified the Nurr1 LBD polypeptide (amino acid 328-598) and analyzed their physical binding using the Biacore S51 SPR sensor, which has a higher sensitivity and improved fluidics, enabling the monitoring of small signal changes derived from binding of compounds to proteins.

[2] = target: T3, Nurr1 interaction with SRC-1 and SRC-3 (Mus musculus, UniProt Q06219); experiment: Co-immunoprecipitation of Nurr1 with SRC-1/SRC-3 in SK-N-BE(2)C cells; format: cell-based; details: 30 μM AQ or 100 μM CQ for 16 hours
T3 construct: the C-terminal myc-tagged full-length Nurr1; His (from vector pCDNA3.1/myc-His) (C); expressed in transfected cells; host or cells: SK-N-BE(2)C human neuroblastoma cells
T3 sequence (Q06219 whole entry): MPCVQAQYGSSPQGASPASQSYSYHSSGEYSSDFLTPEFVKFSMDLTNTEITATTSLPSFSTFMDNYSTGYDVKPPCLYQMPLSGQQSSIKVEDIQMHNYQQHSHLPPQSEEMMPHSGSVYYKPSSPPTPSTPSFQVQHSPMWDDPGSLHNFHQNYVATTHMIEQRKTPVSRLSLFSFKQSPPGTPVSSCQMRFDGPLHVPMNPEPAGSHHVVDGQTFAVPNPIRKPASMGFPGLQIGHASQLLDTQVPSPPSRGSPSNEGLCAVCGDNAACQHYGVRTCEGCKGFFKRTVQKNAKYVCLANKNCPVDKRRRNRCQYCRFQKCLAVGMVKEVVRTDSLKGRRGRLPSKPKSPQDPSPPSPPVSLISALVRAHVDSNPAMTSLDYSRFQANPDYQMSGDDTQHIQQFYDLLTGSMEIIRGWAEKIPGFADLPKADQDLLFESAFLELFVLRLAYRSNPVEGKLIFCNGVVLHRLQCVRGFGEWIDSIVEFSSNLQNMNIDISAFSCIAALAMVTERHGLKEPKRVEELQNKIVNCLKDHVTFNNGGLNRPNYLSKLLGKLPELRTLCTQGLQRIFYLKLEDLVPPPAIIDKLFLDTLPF

[3] = tested on: Nurr1 recruitment to TH promoter NL1 and NL3; experiment: Chromatin immunoprecipitation in PC12 cells; format: cell-based, rat; details: 20 μM AQ or 75 μM CQ for 15 hrs
Description: (§1) Error bars represent standard deviations.
Cells were washed with PBS, fixed with 1% formaldehyde, lysed, and sonicated according to the manufacturer's instruction (Active Motif). 25 μg of soluble chromatin DNA were co-immunoprecipitated 1 μg of Nurr1 specific antibody (E-20, Santa Cruz) or control antibody (rabbit IgG, santa Cruz). […] Values are shown as fold induction compared to mock treated control cells.

[4] = tested on: neural precursor cells from E14 rat cortices; experiment: In vitro differentiation of Nurr1-transduced neural precursor cells into TH+ DA neurons; format: cell-based
Description: as §1
Neural precursor cells (NPCs) from dissection of rat embryos days 14 cortices (E14) were proliferated in N2 medium supplemented with 20 ng/mL basic fibroblast growth factor (bFGF; R&D Systems, Minneapolis, Minn., USA). Following 3-4 days of bFGF-expansion, NPCs were dissociated in Ca^2+/Mg^2+-free Hank's balanced salt solution (CMF-HBSS, Invitrogen, Carlsbad, Calif.) and re-plated onto coverslips (12 mm diameter; Carolina Biological Supply Company, Burlington, N.C.) at 32,000 cells/coverslip pre-coated with poly-L-ornithine (PLO; […], Sigma, St Louis, Mo.) at 37° C. overnight followed by fibronectin (FN; […], Sigma) overnight. Prior to drug treatment, NPCs were transduced with Nurr1-expressing retrovirus of MOI 5 in the presence of polybrene (1 μg/ml, Sigma), cultured overnight in N2, and then differentiated. Getting started chemical treatment (every day for 2 hours), bFGF was not added anymore^3.
Cells were fixed in 4% paraformaldehyde (PFA) for 20 min, washed and then incubated with blocking buffer [PBS, 10% goat serum (Invitrogen), 0.3% Triton X-100 (Sigma)] for 1 hour. […] Following washes with PBS, appropriate fluorescence-tagged secondary antibodies (Jackson Immunoresearch Laboratories, West Grove, Pa.) were used for visualization. […]

Nurr1 LBD [5] = target: T2, Nurr1 LBD; experiment: Fluorescence quenching assay, Nurr1-LBD; format: binding; details: increasing amounts of AQ, 0.1 nM-1 μM
Description: Fluorescence spectra were measured using a SHIMADZU fluorescence spectrophotometer (model RF-5310PC, SHIMADZU). The proteins (15 ng/μl) were incubated with different concentrations of AQ or kanamycin (0.1 nM, 1 nM, 10 nM, 100 nM and 1 μM in PBS buffer, pH7.0). Protein quenching was monitored at 25° C. by using 5 nm of excitation and 5 nm of emission slit-width. The excitation wavelength was 280 nm, and the emission spectra were measured between 290 and 430 nm.

T1 sequence (Q06219 260-335 limits assumed): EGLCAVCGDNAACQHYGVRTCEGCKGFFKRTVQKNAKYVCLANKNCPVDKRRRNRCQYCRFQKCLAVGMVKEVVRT

Structure (SMILES): CCN(CC)Cc1cc(Nc2ccnc3cc(Cl)ccc23)ccc1O [AQ, amodiaquine]
- response with GAL4 or GAL4-Nurr1 DBD (Nurr1 DBD): no response
- neuroprotective effect in PC12 cells (PC12 cells): neuroprotective effect
- binding to Nurr1-LBD (SPR) (Nurr1 LBD [1]): specifically bound
- Nurr1 interactions with SRC-1 and SRC-3 [2]: significantly enhanced
- Nurr1 recruitment to NL1 and NL3 sites of the TH promoter [3]: recruited to both NL1 and NL3 sites
- number of TH+ neurons generated from neural stem cells [4]: enhanced
- mRNA expression levels of TH, DAT, VMAT and AADC genes ([4]; in vitro differentiation for 9 d): enhanced
- fluorescence quenching of Nurr1-LBD (Nurr1 LBD [5]): fluorescence intensity gradually decreased
